# According to patent US7867992B2, “Substituted quinolones” (AiCuris GmbH & Co. KG, priority 2004, dated 2011):
# Structures can show the parent of a compound that is named as a salt. Where two headings read alike, the source gives them in different places.
# How the values were obtained:
# [1] = test system: HCMV; experiment: Anti-HCMV cytopathogenicity test (CPE inhibition); assay type: cell-based, human cytomegalovirus; settings: for EC50: read-out: HCMV EC50; for SI HCMV (selectivity index): SI = CC50 (NHDF)/EC50 (HCMV)
# Method: (§1) Anti-HCMV (Anti-human Cytomegalovirus) Cytopathogenicity Tests
# (§2) The test compounds are employed as 50 millimolar (mM) solutions in dimethyl sulfoxide (DMSO). Ganciclovir®, Foscamet® and Cidofovir® are used as reference compounds. After the addition of 2 μl of the 50, 5, 0.5 and 0.05 mM DMSO stock solutions respectively to 98 μl portions of cell culture medium in row 2 A-H for duplicate determinations, 1:2 dilutions are carried out with 50 μl portions of medium up to row 11 of the 96-well plate. The wells in rows 1 and 12 each contain 50 μl of medium. 150 μl of a suspension of 1×10^4 cells (human prepuce fibroblasts [NHDF]) are then pipetted into each of the wells (row 1=cell control) and, in rows 2-12, a mixture of HCMV-infected and uninfected NHDF cells (M.O.I.=0.001-0.002), i.e. 1-2 infected cells per 1000 uninfected cells. Row 12 (without substance) serves as virus control. The final test concentrations are 250-0.0005 μM. The plates are incubated at 37° C./5% CO2 for 6 days, i.e. until all the cells in the virus controls are infected (100% cytopathogenic effect [CPE]). The wells are then fixed and stained by adding a mixture of formalin and Giemsa's dye (30 minutes), washed with double-distilled water and dried in a drying oven at 50° C. The plates are then assessed visually using an overhead microscope (plaque multiplier from Technomara).
# (§3) The following data can be obtained from the test plates: • CC50 (NHDF)=substance concentration in μM at which no visible cytostatic effects on the cells are evident by comparison with the untreated cell control; • EC50 (HCMV)=substance concentration in μM which inhibits the CPE (cytopathic effect) by 50% compared with the untreated virus control; • SI (selectivity index)=CC50 (NHDF)/EC50 (HCMV).
# [2] = Cytostatic effect on NHDF cells in the anti-HCMV cytopathogenicity test; assay type: cell-based; settings: NHDF cells (human prepuce fibroblasts), 6 days incubation, visual assessment, concentration at which no visible cytostatic effects are evident vs untreated cell control
# Method: as §1, §2, §3
# [3] = Human betaherpesvirus 5, 144 h, HCMV-infected NHDF cells, M.O.I. 0.001-0.002, 6 days, 50% inhibition of CPE vs untreated virus control
SMILES,"EC50 [1, 3]",SI HCMV (selectivity index) [1],CC50 at 6 days [2],"EC50 ([1]; Human betaherpesvirus 5, NHDF, 144 h)"
COc1c(N2CCN(CCC(N)=O)C(C)C2)c(F)cc2c(=O)c(C(=O)NCc3ccc(Cl)cc3Cl)cn(C3CC3)c12 (stereo not drawn) [Example 74],92 nM,28,2600 nM,
COc1c(N2C[C@@H](C)N(CC(=O)N(C)C)[C@@H](C)C2)c(F)cc2c(=O)c(C(=O)NCc3ccc(Cl)cc3Cl)cn(CC(F)(F)F)c12 [Example 54],8.5 nM,2471,21000 nM,
"COc1c(N2C[C@@H](C)N[C@@H](C)C2)c(F)cc2c(=O)c(C(=O)NCc3ccc(OC(F)(F)F)cc3C)cn(CC(F)(F)F)c12 [Example 52, 7-[(3RS,5SR)-3,5-Dimethylpiperazin-1-yl]-6-fluoro-8-methoxy-N-[2-methyl-4-(trifluoromethoxy)benzyl]-4-oxo-1-(2,2,2-trifluoroethyl)-1,4-dihydroquinoline-3-carboxamide]",19 nM,405,7700 nM,
COc1c(N2C[C@@H](C)N[C@@H](C)C2)c(F)cc2c(=O)c(C(=O)NCc3ccc(OC(F)(F)F)cc3Cl)cn(CC(F)(F)F)c12 [Example 51],11 nM,482,5300 nM,
COc1c(N2C[C@@H](C)N(CC(=O)NS(C)(=O)=O)[C@@H](C)C2)c(F)cc2c(=O)c(C(=O)NCc3ccc(OC(F)(F)F)cc3C)cn(CC(F)(F)F)c12 [Example 68],2 nM,12000,24000 nM,
"COc1c(N2C[C@@H](C)N(CC(N)=O)[C@@H](C)C2)c(F)cc2c(=O)c(C(=O)NCc3ccc(Cl)cc3Cl)cn(CC(F)(F)F)c12 [Example 53, {(2RS,6SR)-4-[3-{[(2,4-Dichlorobenzyl)amino]carbonyl}-6-fluoro-8-methoxy-4-oxo-1-(2,2,2-trifluoroethyl)-1,4-dihydroquinolin-7-yl]-2,6-dimethylpiperazin-1-yl}acetamide]",10 nM,430,4300 nM,
"O=C(NCc1ccc(Cl)cc1Cl)c1cn(C2CC2)c2c(Cl)c(N3CCCN(CCO)CC3)c(F)cc2c1=O [Example 1, 8-Chloro-1-cyclopropyl-N-(2,4-dichlorobenzyl)-6-fluoro-7-[4-(2-hydroxyethyl)-1,4-diazepan-1-yl]-4-oxo-1,4-dihydroquinoline-3-carboxamide]",200 nM,12.5,2500 nM,
"COc1c(N2C[C@@H](C)N(C(=O)CN)[C@@H](C)C2)c(F)cc2c(=O)c(C(=O)NCc3ccc(Cl)cc3Cl)cn(C3CC3)c12 [Example 79, 1-Cyclopropyl-N-(2,4-dichlorobenzyl)-6-fluoro-7-[(3RS,5SR)-4-glycyl-3,5-dimethylpiperazin-1-yl]-8-methoxy-4-oxo-1,4-dihydroquinoline-3-carboxamide hydrochloride]",,145,7700 nM,53 nM
"Cc1cc(Cl)ccc1CNC(=O)c1cn(C2CC2)c2c(Cl)c(N3CCN(CCOCCO)CC3)c(F)cc2c1=O [Example 8, 8-Chloro-N-(4-chloro-2-methylbenzyl)-1-cyclopropyl-6-fluoro-7-{4-[2-(2-hydroxyethoxy)ethyl]piperazin-1-yl}-4-oxo-1,4-dihydroquinoline-3-carboxamide]",190 nM,41,7700 nM,
COc1c(N2C[C@@H](C)N[C@@H](C)C2)c(F)cc2c(=O)c(C(=O)NCc3ccc(C(F)(F)F)cc3C)cn(C3CC3)c12 [Example 24],250 nM,19,4700 nM,

# More lines, main results first:
"EC50 [1, 3]",SMILES,SI HCMV (selectivity index) [1],CC50 at 6 days [2],"EC50 ([1]; Human betaherpesvirus 5, NHDF, 144 h)"
100 nM,"COc1c(N2C[C@@H](C)N[C@@H](C)C2)c(F)cc2c(=O)c(C(=O)NCc3ccc(Cl)cc3Cl)cn(CCF)c12 [Example 28, N-(2,4-Dichlorobenzyl)-7-[(3RS,5RS-3,5-dimethyl)piperazin-1-yl]-6-fluoro-1-(2-fluoroethyl)-8-methoxy-4-oxo-1,4-dihydroquinoline-3-carboxamide hydroformate]",63,6100 nM,
19 nM,COc1c(N2C[C@@H](C)N[C@@H](C)C2)c(F)cc2c(=O)c(C(=O)NCc3ccc(Cl)cc3Cl)cn([C@H]3C[C@H]3F)c12 [Example 34],442,8400 nM,
100 nM,"COc1c(N2C[C@@H](C)N[C@@H](C)C2)c(F)cc2c(=O)c(C(=O)NCc3ccc(Cl)cc3Cl)cn([C@@H]3C[C@@H]3F)c12 (mixture of isomers) [Example 16, N-(2,4-Dichlorobenzyl)-7-[(3RS,5SR)-3,5-dimethylpiperazin-1-yl]-6-fluoro-1-[(1R,2S)-2-fluorocyclopropyl]-8-methoxy-4-oxo-1,4-dihydroquinoline-3-carboxamide]",78,7800 nM,
230 nM,"C[C@@H]1CN(c2c(F)cc3c(=O)c(C(=O)NCc4ccc(Cl)cc4Cl)cn(C4CC4)c3c2Cl)C[C@H](C)N1 [Example 5, 8-Chloro-1-cyclopropyl-N-(2,4-dichlorobenzyl)-7-[(3RS,5SR)-3,5-dimethylpipierazin-1-yl]-6-fluoro-4-oxo-1,4-dihydroquinoline-3-carboxamide]",26,6000 nM,
77 nM,COc1c(N2C[C@@H](C)N[C@@H](C)C2)c(F)cc2c(=O)c(C(=O)NCc3ccc(Cl)cc3Cl)cn([C@@H](C)C(F)(F)F)c12 [Example 45],31,2400 nM,
31 nM,COc1c(N2C[C@@H](C)N(C[C@@H](O)CO)[C@@H](C)C2)c(F)cc2c(=O)c(C(=O)NCc3ccc(Cl)cc3Cl)cn(C3CC3)c12 [Example 92],171,5300 nM,
380 nM,COc1ccc(CNC(=O)c2cn(C3CC3)c3c(OC)c(N4C[C@@H](C)N[C@@H](C)C4)c(F)cc3c2=O)c(Cl)c1 [Example 22],22,8400 nM,
36.5 nM,COc1c(N2C[C@@H](C)N[C@@H](C)C2)c(F)cc2c(=O)c(C(=O)NCc3ccc(Cl)cc3Cl)cn(CC(F)F)c12 [Example 35],138,4800 nM,
110 nM,COc1c(N2C[C@@H](C)N[C@@H](C)C2)c(F)cc2c(=O)c(C(=O)NCc3ccc(Cl)cc3Cl)cn(C3CCC3)c12 [Example 40],100,11000 nM,
